Experimental findings from paper PMC6271231 (Molecules, 2014) are described below.

“Also recorded” adds a separate entry of the source. Where two headings read alike, the source gives them in different places.

The target in experiment [1] is NA of A/Sydney/5/97 (H3N2) (Influenza A virus, UniProt Q9DIC9). In words: Neuraminidase inhibition assay (fluorimetric, MUNANA). Format: biochemical, influenza A virus A/Sydney/5/97 (H3N2).
Experiment [2] deals with MCP-1 production in H1N1-infected A549 cells. Type of experiment: cell-based, human.
For experiment [3], the system named is IL-6 production in H1N1-infected A549 cells. Format: cell-based, human.
The mark [4] stands for this setting: NA from A/Sydney/5/97 (H3N2), 37 °C, 40 min, pH 6.5, read-out: IC50, inhibition of NA, A/Sydney/5/97(H3N2) (converted).

In the case of `O=C(Oc1cc(O)c2c(c1)O[C@H](c1cc(O)c(O)c(O)c1)CC2)c1cc(O)c(O)c(O)c1` [Compound 2, (−)-5,3',4',5'-tetrahydroxyflavan-7-gallate], in experiment [1] (setting [4]), the IC50 is over 90.4 µM. Moreover, the “inhibition of MCP-1 expression induced by influenza H1N1 virus (in words)” value (“inhibition of MCP-1 expression induced” below) in experiment [2] is recorded as “inhibit MCP-1 expression best at the lowest concentrated dilution of 3 μg/mL”. In experiment [3], the “inhibition of IL-6 expression induced by influenza H1N1 virus (in words)” value was “best inhibitory effect”.
For `CC(=O)N[C@H]1[C@H]([C@H](O)[C@H](O)CO)OC(C(=O)O)=C[C@@H]1N=C(N)N` [zanamivir, reference compound], the IC50 in experiment [1] was 0.000632 µM.
In the case of `O=C(Oc1cc(O)c2c(c1)O[C@H](c1cc(O)c(OC(=O)c3cc(O)c(O)c(O)c3)c(O)c1)CC2)c1cc(O)c(O)c(O)c1` [Compound 4, (−)-7,4'-di-O-galloyltricetiflavan], in experiment [1] (setting [4]), the IC50 was over 67.3 µM.
As for `O=C(Oc1cc(O)c2c(c1)OC(c1cc(O)c(O)c(O)c1)C(O)C2)c1cc(O)c(O)c(O)c1` (single isomer, unassigned; (+)) [Compound 3, (+)-3,5,3',4',5'-penta-hydroxyflavan-7-gallate], the IC50 in experiment [1] (setting [4]) is over 87.3 µM. Further, the “inhibition of MCP-1 expression induced” value in experiment [2] was “worst inhibition”. Moreover, in experiment [3], the “inhibition of IL-6 expression induced by influenza H1N1 virus (in words)” value is “weakest inhibition; also recorded: worst inhibition”.
Regarding `CC1(C)O[C@@H]2Cc3c(O)cc(OC(=O)c4cc(O)c(O)c(O)c4)cc3O[C@@H]2c2cc(O)c(O)c(O)c21` [Compound 1, (2R,3R)-7-O-galloylplumbocatechin A], in experiment [1] (setting [4]), the IC50 was 64.7 µM. For the same molecule, the “inhibition of MCP-1 expression induced” value in experiment [2] was “inhibit MCP-1 expression best at the lowest concentrated dilution of 3 μg/mL; also recorded: best results”.
